# According to patent publication US5663186A, “Treatment of atherosclerosis with angiotensin II receptor blocking imidazoles” (Merck & Co., Inc., priority 1995, dated 1997):
# What was measured:
# [1] = tested on: patients with mild to moderate hypertension; assay: Clinical study: total cholesterol; type: in vivo
# Method: (§1) The total, HDL, LDL and VLDL cholesterol levels were measured using the procedures described below:
# Cholesterol esters in the sample are hydrolyzed by cholesterol esterase to cholesterol and free fatty acids. The cholesterol produced in the reaction plus the free cholesterol present in the sample, are oxidized by cholesterol oxidase to form cholesten-3-one and hydrogen peroxide. Peroxidase catalyzes the hydrogen peroxide oxidation and 4-aminoantipyrine(4-AAP) and phenol with subsequent coupling to 3,4-dichlorophenol. The end product is a quinoneimine dye which is read at a primary wavelength of 520 nm. The color formation is proportional to the concentration of cholesterol present. This absorbance value is then compared to the absorbance by a known calibrator. The result is then printed out directly in mg/dL.
# Renal Hypertensives Rats = assay: Antihypertensive effects in renal hypertensive rats (left renal artery ligation); type: in vivo, rat
# Method: This procedure increases blood pressure by increasing renin production with consequent elevation of AII levels. Compounds are administered orally at 100 mg/kg and/or intravenously via a cannula in the jugular vein at 10 mg/kg. Arterial blood pressure is continuously measured directly through a carotid artery cannula and recorded using a pressure transducer and a polygraph. Blood pressure levels after treatment are compared to pretreatment levels to determine the antihypertensive effects of the compounds (See Table 1).
# Compound listed in Table 2 was tested in the same manner as described for Table 1, except that in the test for antihypertensive effects in renal hypertensive rats, the compounds were administered orally at 30 mg/kg and intravenously at 3 mg/kg.
# [2] = tested on: patients with mild to moderate hypertension; assay: Clinical study: triglycerides; type: in vivo
# Method: (§2) After six weeks the non-responders were titrated to a 100 mg oral dose administered once daily.
# [3] = tested on: patients with mild to moderate hypertension; assay: Clinical study: plasma renin activity; type: in vivo
# Method: as §2
# [4] = tested on: patients with mild to moderate hypertension; assay: Clinical study: HDL cholesterol; type: in vivo
# Method: as §1
# High Density Lipoprotein Cholesterol
# The high density lipoprotein (HDL) cholesterol was measured by analyzing a 2.0 mL volume of non-hemolyzed serum or EDTA plasma(heparinized plasma is not recommended), which has been separated from the cells within 30 minutes of collection. A fasting specimen of at least 12 hours is required for accurate interpretation. In most persons, the plasma cholesterol level is affected very little by a recent meal. However, in some persons an increase of up to 100 mg/dL may be induced by a recent meal. The level of cholesterol in plasma is slightly lower than serum (approximately 3%) due to the fact that the liquid EDTA dilutes the plasma slightly and it somotically draws water out of the erythrocytes.
# The method used for in this procedure utilizes the precipitating properties of phosphotungstate. Addition of the HDL precipitating reagent lowers the pH of the sample to the isoelectric point for the LDL and VLDL. LDL and VLDL molecules at pH 5.7 have overall electrical neutrality.
# Phosphotungstate then selectively forms insoluble ligand complexes with LDL and VLDL. Differences in ionic strength forcefully precipitate these complexes. Centrifugation removes them, leaving the HDL fraction in the supernatant. The resulting supernatant cholesterol (HDL) is then assayed for cholesterol. Cholesterol esters in the sample are hydrolyzed by cholesterol esterase to cholesterol and free fatty acids. The cholesterol produced in the reaction plus the free cholesterol present in the sample, are oxidized by cholesterol oxidase to form cholesten-3-one and hydrogen peroxide. Peroxidase catalyzes the hydrogen peroxide oxidation and 4-aminoantipyrine (4-AAP) and phenol with subsequent coupling to 3,4-dichlorophenol.
# The end product is a quinoneimine dye which is read at a primary wavelength of 520 nm. The color formation is proportional to the concentration of cholesterol present. This absorbance value is then compared to the absorbance by a known calibrator. The result is then printed out directly in mg/dL.
# [5] = tested on: patients with mild to moderate hypertension; assay: Clinical study: sitting diastolic blood pressure; type: in vivo; conditions: for Peak Sitting Diastolic Blood Pressure, Mean (on treatment) / Mean Change in Peak Sitting Diastolic Blood Pressure / Change in Peak Sitting Diastolic Blood Pressure, adj. mean: peak (6 hours postdose); for Trough Sitting Diastolic Blood Pressure, Mean (on treatment) / Mean Change in Trough Sitting Diastolic Blood Pressure / Change in Trough Sitting Diastolic Blood Pressure, adj. mean: trough (24 hours postdose)
# Method: Sitting Diastolic Blood Pressure Results At Week 6 and 12
# The changes from baseline blood pressure (primary=trough sitting diastolic blod pressure at weeks 6 and 12) were evaluated using a least squares analysis of the means based upon an analysis of covariance (covariate=baseline blood pressure)for a randomized block (block=investigator site) design. An "all-patients-treated" and a "per-protocol" analysis were performed. The study was designed to detect a 5 mmHg difference in mean change between treatments with 95% probability based upon a group size of 86 with an α of 0.05 (two-sided) and a standard deviation of 9 mmHg.
# AT1 receptor subtype = conditions: cited from earlier work
smiles,measurement,setting,value
"CCCCc1nc(Cl)c(CO)n1Cc1ccc(-c2ccccc2-c2nnn[nH]2)cc1.[K] [Losartan, 2-n-butyl-4-chloro-1-[(2'-(tetrazol-5-yl)-1,1'-biphenyl-4-yl)-methyl]-1H-imidazole-5-methanol potassium salt]","TOTAL CHOLESTEROL, CHANGE MEAN","[1]; LOS 50, week 12, N 107, change from baseline 211.1",-3.9 mg/dL
same,"TOTAL CHOLESTEROL, TREATMENT MEAN","[1]; LOS 50, week 12, N 107, oral once daily",207.3 mg/dL
same,"TOTAL CHOLESTEROL, TREATMENT MEAN","[1]; LOS 50/100, week 12, N 106",204.8 mg/dL
same,"TOTAL CHOLESTEROL, CHANGE MEAN","[1]; LOS 50/100, week 12, N 106, change from baseline 212.6",-7.9 mg/dL
same,"Antihypertensive Effects in Renal Hypertensives Rats, Intravenous Activity","Renal Hypertensives Rats; intravenous, 10 mg/kg or less",+ (Significant decrease in blood pressure at 10 mg/kg or less)
same,"Antihypertensive Effects in Renal Hypertensives Rats, Oral Activity","Renal Hypertensives Rats; oral, 100 mg/kg or less",+ (Significant decrease in blood pressure at 100 mg/kg or less)
same,"TRIGLYCERIDES, TREATMENT MEAN","[2]; LOS 50, week 12, N 107",173.1 mg/dL
same,"TRIGLYCERIDES, CHANGE MEAN","[2]; LOS 50, week 12, N 107, change from baseline 170.4",2.7 mg/dL
same,"TRIGLYCERIDES, TREATMENT MEAN","[2]; LOS 50/100, week 12, N 106",187.8 mg/dL
same,"TRIGLYCERIDES, CHANGE MEAN","[2]; LOS 50/100, week 12, N 106, change from baseline 174.4",13.4 mg/dL
same,"PLASMA RENIN ACTIVITY, TREATMENT MEAN","[3]; LOS 50, week 12, N 99",2.889 ng/mL/h
same,"PLASMA RENIN ACTIVITY, CHANGE MEAN","[3]; LOS 50, week 12, N 99, change from baseline 1.300",1.589 ng/mL/h
same,"PLASMA RENIN ACTIVITY, TREATMENT MEAN","[3]; LOS 50/100, week 12, N 96",3.724 ng/mL/h
same,"PLASMA RENIN ACTIVITY, CHANGE MEAN","[3]; LOS 50/100, week 12, N 96, change from baseline 1.473",2.251 ng/mL/h
same,"HDL CHOLESTEROL, TREATMENT MEAN","[4]; LOS 50, week 12, N 107",52.1 mg/dL
same,"HDL CHOLESTEROL, CHANGE MEAN","[4]; LOS 50, week 12, N 107, change from baseline 52.5",-0.4 mg/dL
same,"HDL CHOLESTEROL, TREATMENT MEAN","[4]; LOS 50/100, week 12, N 106",52.3 mg/dL
same,"HDL CHOLESTEROL, CHANGE MEAN","[4]; LOS 50/100, week 12, N 106, change from baseline 52.9",-0.5 mg/dL
same,"Category I: Trough SDBP <90 mmHg, number of patients","[5]; 6 wk, 50 mg, of 125",37
same,"Category I: Trough SDBP <90 mmHg, percent of patients","[5]; 6 wk, 50 mg, of 125",29.6%
same,"Category II: Trough SDBP ≥90 mmHg, number of patients","[5]; 6 wk, 50 mg, of 125",20
same,"Category II: Trough SDBP ≥90 mmHg, percent of patients","[5]; 6 wk, 50 mg, of 125",16.0%
same,"Category III: Neither Category I or II, number of patients","[5]; 6 wk, 50 mg, of 125",68
same,"Category III: Neither Category I or II, percent of patients","[5]; 6 wk, 50 mg, of 125",54.4%
same,"Category I: Trough SDBP <90 mmHg, number of patients","[5]; 6 wk, 50/100 mg, of 118",37
same,"Category I: Trough SDBP <90 mmHg, percent of patients","[5]; 6 wk, 50/100 mg, of 118",31.3%
same,"Category II: Trough SDBP ≥90 mmHg, number of patients","[5]; 6 wk, 50/100 mg, of 118",21
same,"Category II: Trough SDBP ≥90 mmHg, percent of patients","[5]; 6 wk, 50/100 mg, of 118",17.7%
same,"Category III: Neither Category I or II, number of patients","[5]; 6 wk, 50/100 mg, of 118",60
same,"Category III: Neither Category I or II, percent of patients","[5]; 6 wk, 50/100 mg, of 118",50.8%
same,"Category I: Trough SDBP <90 mmHg, number of patients","[5]; 12 wk, 50 mg, of 125",40
same,"Category I: Trough SDBP <90 mmHg, percent of patients","[5]; 12 wk, 50 mg, of 125",32.0%
same,"Category II: Trough SDBP ≥90 mmHg, number of patients","[5]; 12 wk, 50 mg, of 125",18
same,"Category II: Trough SDBP ≥90 mmHg, percent of patients","[5]; 12 wk, 50 mg, of 125",14.4%
same,"Category III: Neither Category I or II, number of patients","[5]; 12 wk, 50 mg, of 125",67
same,"Category III: Neither Category I or II, percent of patients","[5]; 12 wk, 50 mg, of 125",53.6%
same,"Category I: Trough SDBP <90 mmHg, number of patients","[5]; 12 wk, 50/100 mg, of 118",37
same,"Category I: Trough SDBP <90 mmHg, percent of patients","[5]; 12 wk, 50/100 mg, of 118",31.3%
same,"Category II: Trough SDBP ≥90 mmHg, number of patients","[5]; 12 wk, 50/100 mg, of 118",24
same,"Category II: Trough SDBP ≥90 mmHg, percent of patients","[5]; 12 wk, 50/100 mg, of 118",20.3%
same,"Category III: Neither Category I or II, number of patients","[5]; 12 wk, 50/100 mg, of 118",57
same,"Category III: Neither Category I or II, percent of patients","[5]; 12 wk, 50/100 mg, of 118",48.3%
same,"Peak Sitting Diastolic Blood Pressure, Mean (on treatment)","[5]; 6 wk, 50 mg, N 118, all-patients-treated",90.2 mmHg
same,Mean Change in Peak Sitting Diastolic Blood Pressure,"[5]; 6 wk, 50 mg, N 118, baseline 99.9",-9.7 mmHg
same,"Change in Peak Sitting Diastolic Blood Pressure, adj. mean","[5]; 6 wk, 50 mg, N 118, least squares",-9.7 mmHg
same,"Peak Sitting Diastolic Blood Pressure, Mean (on treatment)","[5]; 6 wk, 50/100 mg, N 111, all-patients-treated",90.3 mmHg
same,Mean Change in Peak Sitting Diastolic Blood Pressure,"[5]; 6 wk, 50/100 mg, N 111, baseline 99.1",-8.9 mmHg
same,"Change in Peak Sitting Diastolic Blood Pressure, adj. mean","[5]; 6 wk, 50/100 mg, N 111, least squares",-9.0 mmHg
same,"Peak Sitting Diastolic Blood Pressure, Mean (on treatment)","[5]; 12 wk, 50 mg, N 121, all-patients-treated",90.3 mmHg
same,Mean Change in Peak Sitting Diastolic Blood Pressure,"[5]; 12 wk, 50 mg, N 121, baseline 99.8",-9.5 mmHg
same,"Change in Peak Sitting Diastolic Blood Pressure, adj. mean","[5]; 12 wk, 50 mg, N 121, least squares",-9.3 mmHg
same,"Peak Sitting Diastolic Blood Pressure, Mean (on treatment)","[5]; 12 wk, 50/100 mg, N 113, all-patients-treated",89.1 mmHg
same,Mean Change in Peak Sitting Diastolic Blood Pressure,"[5]; 12 wk, 50/100 mg, N 113, baseline 99.2",-10.1 mmHg
same,"Change in Peak Sitting Diastolic Blood Pressure, adj. mean","[5]; 12 wk, 50/100 mg, N 113, least squares",-10.1 mmHg
same,"Trough Sitting Diastolic Blood Pressure, Mean (on treatment)","[5]; 6 wk, 50 mg, N 125, all-patients-treated",95.3 mmHg
same,Mean Change in Trough Sitting Diastolic Blood Pressure,"[5]; 6 wk, 50 mg, N 125, baseline 102.1",-6.9 mmHg
same,"Change in Trough Sitting Diastolic Blood Pressure, adj. mean","[5]; 6 wk, 50 mg, N 125, least squares",-6.9 mmHg
same,"Trough Sitting Diastolic Blood Pressure, Mean (on treatment)","[5]; 6 wk, 50/100 mg, N 118, all-patients-treated",94.3 mmHg
same,Mean Change in Trough Sitting Diastolic Blood Pressure,"[5]; 6 wk, 50/100 mg, N 118, baseline 102.2",-7.9 mmHg
same,"Change in Trough Sitting Diastolic Blood Pressure, adj. mean","[5]; 6 wk, 50/100 mg, N 118, least squares",-7.9 mmHg
same,"Trough Sitting Diastolic Blood Pressure, Mean (on treatment)","[5]; 12 wk, 50 mg, N 125, all-patients-treated",94.2 mmHg
same,Mean Change in Trough Sitting Diastolic Blood Pressure,"[5]; 12 wk, 50 mg, N 125, baseline 102.1",-7.9 mmHg
same,"Change in Trough Sitting Diastolic Blood Pressure, adj. mean","[5]; 12 wk, 50 mg, N 125, least squares",-7.9 mmHg
same,"Trough Sitting Diastolic Blood Pressure, Mean (on treatment)","[5]; 12 wk, 50/100 mg, N 118, all-patients-treated",93.6 mmHg
same,Mean Change in Trough Sitting Diastolic Blood Pressure,"[5]; 12 wk, 50/100 mg, N 118, baseline 102.2",-8.6 mmHg
same,"Change in Trough Sitting Diastolic Blood Pressure, adj. mean","[5]; 12 wk, 50/100 mg, N 118, least squares",-8.6 mmHg
same,"AII antagonism, oral activity",AT1 receptor subtype,orally active A II antagonists
